# Source: PubChem BioAssay AID2197 (Vanderbilt High Throughput Screening Facility, 2009)
# Activity calls are given as the source filed them. How the calls were made is not given here.
# Biological target: Metabotropic glutamate receptor 4 (Homo sapiens) (UniProt Q14833)
# Assay: PubChem AID 2197
# Conditions: CHO hmGluR4/Gqi5 calcium mobilization, PAM potency
# Metabotropic glutamate receptor 4 (Homo sapiens), sequence (Q14833 whole entry, looked up): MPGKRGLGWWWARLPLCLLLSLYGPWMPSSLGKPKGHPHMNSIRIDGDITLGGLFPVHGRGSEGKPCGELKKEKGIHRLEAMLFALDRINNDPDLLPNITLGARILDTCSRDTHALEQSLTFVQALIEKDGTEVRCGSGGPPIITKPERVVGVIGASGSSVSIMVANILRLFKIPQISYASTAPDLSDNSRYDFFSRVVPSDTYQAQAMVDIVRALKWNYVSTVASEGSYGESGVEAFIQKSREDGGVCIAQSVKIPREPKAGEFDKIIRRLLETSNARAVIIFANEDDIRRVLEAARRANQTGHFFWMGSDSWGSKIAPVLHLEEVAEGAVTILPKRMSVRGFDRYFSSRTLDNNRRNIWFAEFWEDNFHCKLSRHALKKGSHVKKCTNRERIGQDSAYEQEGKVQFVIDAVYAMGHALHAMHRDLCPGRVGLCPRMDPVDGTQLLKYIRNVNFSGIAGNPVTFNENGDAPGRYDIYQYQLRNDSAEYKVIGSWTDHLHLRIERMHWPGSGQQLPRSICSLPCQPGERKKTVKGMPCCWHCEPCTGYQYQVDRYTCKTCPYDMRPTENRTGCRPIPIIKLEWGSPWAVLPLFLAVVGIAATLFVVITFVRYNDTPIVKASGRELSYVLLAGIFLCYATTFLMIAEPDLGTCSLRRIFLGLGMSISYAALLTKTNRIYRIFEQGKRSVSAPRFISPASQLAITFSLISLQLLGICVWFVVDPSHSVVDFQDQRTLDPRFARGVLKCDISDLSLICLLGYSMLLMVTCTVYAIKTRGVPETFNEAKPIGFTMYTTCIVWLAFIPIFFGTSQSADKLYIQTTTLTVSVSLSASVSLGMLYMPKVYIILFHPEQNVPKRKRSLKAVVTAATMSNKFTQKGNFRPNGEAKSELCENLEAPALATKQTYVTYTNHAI
row,SMILES,EC50
1,O=C(Nc1ccc(Cl)c(Cl)c1)c1ccncn1,2840 nM
2,COc1ccc(NC(=O)c2ccccn2)cc1Cl,1050 nM
3,O=C(Nc1ccc(F)c(C(F)(F)F)c1)c1ccccn1,1530 nM
4,O=C(Nc1ccc(Cl)c(C(F)(F)F)c1)c1ccccn1,2050 nM
5,O=C(Nc1ccc(Cl)c(Cl)c1)c1ccccn1,1370 nM
6,O=C(Nc1cccc(Cl)c1)c1ccccn1,1090 nM
7,COc1cc(NC(=O)c2ccccn2)ccc1C,562 nM
8,COc1cc(NC(=O)c2ccccn2)ccc1F,776 nM

# Same assay, conditions: CHO hmGluR4/Gqi5 calcium mobilization, PAM potency; at 30.1 µM (top of the series)
row,% glutamate max response,SMILES
1,inactive,O=C(Nc1ccc(N2CCCS2(=O)=O)cc1)c1ccccn1
2,inactive,O=C(Nc1cccc(C(F)(F)F)n1)c1ccccn1
3,inactive,COc1cc(NC(=O)c2ccccn2)ncn1
